Assays:
[1] = tested on: DU145 cell line; experiment: Cancer cell death by double target siRNA and anticancer agent, MTT cell viability; assay type: cell-based
Procedure: (§1) After incubating the DU145 cell line and the H460 cell line in 6-well plates respectively, we transfected the double target siRNA set 1 (si-AT1) according to the present disclosure thereto. Then, as 48 hours lapsed, the cells were treated with cisplatin 50 uM, etoposide 20 uM or Taxol 1 uM and were incubated for 16 hours. Thereafter, the cells were treated with 5 mg/mL MTT (Promega, Ltd.) and incubated for 4 hours, and then the medium was removed. The cells were treated with 150 μl of solubilization solution and stop solution and then were incubated at 37° C. for 4 hours. Absorbance of the reaction solution was measured at 570 nm and cell viability was calculated using the following equation. Cell viability=(Absorbance of experiment group at 570 nm/Absorbance of control at […])×100(%) [Equation 1]

[2] = tested on: mTOR gene; experiment: mTOR gene expression inhibition by siRNA transfection, RT-PCR/qPCR of mRNA (PC3 and h460 cell lines); assay type: cell-based, human; conditions: 80 pmole siRNA per well, 48 hours after transfection, normalized to GAPDH
Procedure: (§2) We dispensed PC3 and h460 cell lines into 12-well plates, and incubated the same at 37° C. and 5% CO2 condition in RPMI medium (Hyclone company) with 10% FBS (Hyclone company) until a cell confluent reaches 50%. Thereafter, 3 μl of lipofectamine 3000 (Invitrogen, Carlsbad, Calif., USA) was used to transfect the double target siRNA set 1 prepared in the Example 1 (si-AT 1) to the wells in which the cells were cultured at 80 pmole per well. Thus, AR and mTOR were knocked down simultaneously. In addition, siRNA to AR and siRNA to mTOR were transfected respectively, as listed in the following table 3, as a positive control. At 48 hours after the transfection, cells were crushed, and total RNA was extracted using GeneJET RNA Purification Kit (Invitrogen). While using the extracted total RNA as a template, the same was subjected to reverse transcription into cDNA via RT-PCR reaction. Then, mRNA expression levels of AR and mTOR by each siRNA and by the double target siRNA set 1 (si-AT1) according to the present disclosure was identified via q-PCR reaction. To identify the mRNA expression levels, the mRNA of AR and mTOR in the cell lysates knocked down by PCR conditions of Table 6 was converted to cDNA using the primer set from Table 4 and the reaction mixture from Table 5. […]

[3] = tested on: H460 cell line; experiment: Cancer cell death by double target siRNA and anticancer agent, MTT cell viability; assay type: cell-based
Procedure: as §1

[4] = tested on: AR gene; experiment: AR gene expression inhibition by siRNA transfection, RT-PCR/qPCR of mRNA (PC3 and h460 cell lines); assay type: cell-based, human; conditions: 80 pmole siRNA per well, 48 hours after transfection, normalized to GAPDH
Procedure: as §2

[5] = anticancer agent without double target siRNA, cisplatin 50 uM, etoposide 20 uM or Taxol 1 uM, 16 hours
[6] = siRNA transfected, after 48 hours Taxol 1 uM for 16 hours
[7] = siRNA transfected, after 48 hours etoposide 20 uM for 16 hours

CC(=O)O[C@H]1C(=O)[C@@]2(C)[C@H]([C@H](OC(=O)c3ccccc3)[C@]3(O)C[C@H](OC(=O)[C@H](O)[C@@H](NC(=O)c4ccccc4)c4ccccc4)C(C)=C1C3(C)C)[C@]1(OC(C)=O)CO[C@@H]1C[C@@H]2O [taxol, reference compound]
cancer cell death (cell viability, MTT) [1, 5]: a little anticancer activity

si-AT1: AR and mTOR double target double strand siRNA, 20mer, SEQ ID NOs: 1 and 2 (chain 1 GCUGCUGCUGCUGCCUGGGG; chain 2 CCCCAUGCAGCUGCAGCAGC; listed as RNA, chemistry not given here)
mRNA expression level of mTOR ([2]; PC3 cells): reduced
mRNA expression level of mTOR ([2]; h460 cell line): reduced
cancer cell death (cell viability, MTT) ([3]; siRNA alone): showed apoptosis effect
cancer cell death (cell viability, MTT) [3, 6]: significant anticancer activity
cancer cell death (cell viability, MTT) [3, 7]: significant anticancer activity
cancer cell death (cell viability, MTT) ([1]; siRNA alone ("no treat", no anticancer agent)): caused apoptosis
cancer cell death (cell viability, MTT) [1, 6]: significant improvement in the DU145 cell death
cancer cell death (cell viability, MTT) ([1]; siRNA transfected, after 48 hours cisplatin 50 uM for 16 hours): induced the apoptosis
cancer cell death (cell viability, MTT) [1, 7]: significant improvement in the DU145 cell death
mRNA expression level of AR ([4]; PC3 cells): reduced
mRNA expression level of AR ([4]; h460 cell line): reduced

N.N.[Cl][Pt][Cl] [cisplatin, reference compound]
cancer cell death (cell viability, MTT) [1, 5]: apoptosis effect was not achieved

COc1cc([C@@H]2c3cc4c(cc3[C@@H](O[C@@H]3O[C@@H]5CO[C@@H](C)O[C@H]5[C@H](O)[C@H]3O)[C@H]3COC(=O)[C@H]23)OCO4)cc(OC)c1O [etoposide, reference compound]
cancer cell death (cell viability, MTT) [1, 5]: a little anticancer activity

From US10947542B2, “Nucleic acid simultaneously inhibiting expression of AR gene and mTOR gene” (CURIGIN CO., LTD., priority 2017, dated 2021)
